From patent US20220089679A1, “FUSION PROTEIN WITH IMMUNOSUPPRESSIVE ACTIVITY” (FUNDACIÓ INSTITUT D'INVESTIGACIÓ BIOMÈDICA DE BELL, priority 2019, published 2022)

What was measured:
NZB/W F1 hybrid mice = assay: Murine lupus nephritis; assay type: in vivo; conditions: for mortality / survival: up to the end of experiments at 32 weeks, Hybri 20 mg/kg ip days 0, 4, 14, 28, 56, 84, CYP 50 mg/kg ip every 10 days, versus PBS
Excerpt: NZB/W F1 hybrid mice spontaneously develop a disease closely resembling human systemic lupus erythematous (SLE) with severe renal involvement, which is the main cause of animal mortality. In fact, this model, with a well-characterized evolution of renal disease, has been widely used to study the therapeutic potential of several new agents for SLE, as previously reported (Ripoll et al., “CD40 gene silencing reduces the progression of experimental lupus nephritis modulating local milieu and systemic mechanisms”, PLoS One, 2013, vol. 8(6)).
From 20 weeks of age, and close to a potential therapeutic schedule in humans, mice (n=9) received Hybri intraperitoneally (ip) at 20 mg/kg on days 0, 4, 14, 28, 56 and 84; or CYP (n=8) ip. at 50 mg/kg every 10 days; or 200 μl PBS ip. twice a week (n=8).

[1] = system: CD3+ T cell proliferation; assay: Mixed lymphocyte reaction (MLR) in vitro proliferation assay; assay type: cell-based, human; conditions: for decrease of CD3+ cells proliferation: 6 days, as compared to spontaneous proliferation without immunosuppressive agents (MLR), two responder subjects
Experimental: Mixed Lymphocyte reactions (MLR) were performed in the presence or absence of different immunosuppressive drugs to test their inhibitory effect on T cell proliferation, following conventional methodology (Levitsky J, et al., “Allospecific regulatory effects of sirolimus and tacrolimus in the human mixed lymphocyte reaction”, Transplantation, 2011, vol. 91(2), pp. 199-206).
Briefly, peripheral blood mononuclear cells (PBMC) from healthy controls were used as responder cells. CD3^+-depleted splenocytes extracted from deceased donors and mature dendritic cells (DCs) were extracted with CD2 positive selection cocktail (Stem Cell Technologies, France) following manufacturer's instructions and they were used as stimulators in the assay. PBMC from peripheral blood samples and splenocytes were isolated by standard Ficoll density gradient centrifugation (Bargalló M E. et al., “Utility of Systematic Isolation of immune cell subsets from HIV-infected individuals for miRNA profiling”, J Immunol Methods, 2017, vol. 442, pp. 12-19). In order to obtain mature DCs, monocytes were isolated from PBMC by negative selection with Human monocyte enrichment kit (Stem Cell Technologies, France) following manufacturer's instructions, cultured for 6 days with complete Ex-vivo medium supplemented with 2% of human serum (Sigma Aldrich), GMSF (15 ng/ml; R&D) and IL-4 (10 ng/ml; Sigma Aldrich) (37° C. 5% CO2), and stimulated with LPS (1 μg/ml; Sigma Aldrich) for 24 h.
First, PBMC were stained with carboxyfluorescein succinimidyl ester (CFSE) (Lloberas N, et al., “Dendritic cells phenotype fitting under hypoxia or lipopolysaccharide; adenosine 5′-triphosphate-binding cassette transporters far beyond an efflux pump”, Clin Exp Immunol., 2013, vol. 172(3), pp. 444-54). […] At day 6, cells were harvested and stained for CD3-APC and CD4-PE (BD Bioscience, San Jose, Calif., USA) 20 minutes in the dark following manufacturer's instructions, and T-cell proliferation were analyzed by flow cytometry (BD FACS CANTO 11, San Jose, Calif., USA) using Facs Diva software and following manufacturer's instructions.
The in vitro proliferation assay was performed with high HLA-mismatch combination between 2 stimulator DCs and two corresponding responder subjects ([…], S2) T cells.

[2] = system: Lewis rats transplanted with a single kidney from a Wistar donor rat; assay: Rat renal allotransplantation (life-sustaining renal transplantation model); assay type: in vivo; conditions: 500 μg intraperitoneally 2 hours before transplantation, then daily for 6 days, followed for 3 weeks, versus non-treated group, p<0.05
Excerpt: A model of life-sustaining renal transplantation previously described (De Ramon et al., “CD154-CD40 T-cell co-stimulation pathway is a key mechanism in kidney ischemia-reperfusion injury”, Kidney Int., 2015, vol. 88(3), pp. 538-49) was used to test the therapeutic effects of the fusion protein. It is known that in experimental renal transplantation with highly alloreactive donor-recipient combination, severe acute rejection results in high recipients' mortality.
Briefly, Lewis rats were bi-nephrectomized and subsequently transplanted with a single kidney from a Wistar donor rat. […] In the control group, recipient Lewis rats received no treatment. Transplanted rats were followed for 3 weeks.

[3] = system: Wistar rats with 40 minutes of bilateral renal ischemia
Experimental: Rats were sham operated or suffered from renal warm ischemia and were treated with the fusion protein of the invention of sequence SEQ ID NO: 6 (Hybri) at 20 mg/kg ip. 24 hours before renal ischemia; and in the control ischemic group rats received PBS.

Compound	albuminuria (albuminuria/creatininuria ratio) (NZB/W F1 hybrid mice; at 3 months of therapy)	mortality / survival (NZB/W F1 hybrid mice)	inhibition of mature CD3+ T cell proliferation (in words) ([1]; 10 μg/mL and 20 μg/mL, compared with tacrolimus (10 nM), FIG. 5)	decrease of CD3+ cells proliferation ([1]; 10 μg/mL)	decrease of CD3+ cells proliferation ([1]; 20 μg/mL)	reduction in T cell proliferation (immunosuppressive effect, FIG. 5) ([1]; summary statement of FIG. 5)	survival [2]	survival ([2]; listed as fusion polypeptide)	anti-DNA antibodies in serum (NZB/W F1 hybrid mice; FIG. 8B)	albuminuria (albuminuria/creatininuria ratio) (NZB/W F1 hybrid mice; mouse, in vivo)	mortality / survival (NZB/W F1 hybrid mice; listed as fusion polypeptide)	preservation of renal structure ([3]; 20 mg/kg ip. 24 hours before renal ischemia)	renal function (serum creatinine levels) ([3]; 20 mg/kg ip. 24 hours before renal ischemia, 24 hours after warm ischemia, versus PBS, p=0.0038)	T cells with regulatory phenotype (Tregs) per high power field in renal parenchyma ([3]; compared to non-treated ischemic kidneys)	renal failure in sham operated rats ([3]; rat, in vivo)
O=P1(N(CCCl)CCCl)NCCCO1 (stereo not shown) [CYP, cyclophosphamide, reference compound]	reducing albuminuria	no mortality													
Hybri: fusion protein of human PDL2 extracellular domain, (GGGGS)3 linker, human CTLA4 extracellular domain, Fc of human IgG, poly-histidine tag; SEQ ID NO: 6		no mortality	strongly inhibit	97%-99%	94%-99%	nearly complete	significantly higher survival	strongly improved the survival	effectively reduced anti-DNA antibodies to similar levels than CYP	as efficient as CYP in reducing albuminuria	strongly improved the survival	better preservation of renal structure	significantly improved renal function	increased	did not develop renal failure
